What was measured:
CCRF-CEM = test: In vitro antitumor activity against human leukemia CCRF-CEM cell line; type: functional
SR = test: In vitro antitumor activity against human leukemia SR cell line; type: functional
SNB-75 = test: In vitro antitumor activity against human CNS SNB-75 cell line; type: functional
OVCAR-4 = test: In vitro antitumor activity against human ovarian OVCAR-4 cell line; type: functional
SW-620 = test: In vitro antitumor activity against human Colon SW-620 cell line; type: functional
MDA-MB-231 = test: In vitro antitumor activity against human breast MDA-MB-231/ATCC cell line; type: functional
TK-10 = test: In vitro antitumor activity against human renal TK-10 cell line; type: functional
UO-31 = test: In vitro antitumor activity against human renal UO-31 cell line; type: functional
ACHN = test: In vitro antitumor activity against human renal ACHN cell line; type: functional
NCI/ADR-RES = test: In vitro antitumor activity against human breast NCI/ADR-RES cell line; type: functional
M14 = test: In vitro antitumor activity against human melanoma M14 cell line; type: functional
SK-MEL-5 = test: In vitro antitumor activity against human melanoma SK-MEL-5 cell line; type: functional
LOX IMVI = test: In vitro antitumor activity against human melanoma […] cell line; type: functional
HCT-116 = test: In vitro antitumor activity against human Colon HCT116 cell line; type: functional
NCI-H23 = test: In vitro antitumor activity against human non-small cell lung NCI-H23 cell line
Malme-3M = test: In vitro antitumor activity against human melanoma MALME-3M cell line; type: functional
NCI-H226 = test: In vitro antitumor activity against human non-small cell lung NCI-H226 cell line; type: functional
UACC-257 = test: In vitro antitumor activity against human melanoma UACC-257 cell line; type: functional
A498 = test: In vitro antitumor activity against human renal A498 cell line; type: functional
NCI-H522 = test: In vitro antitumor activity against human non-small cell lung NCI-H522 cell line; type: functional
786-0 = test: In vitro antitumor activity against human renal 786-0 cell line; type: functional
CAKI-1 = test: In vitro antitumor activity against human renal CAKI-1 cell line; type: functional
SF-539 = test: In vitro antitumor activity against human CNS SF-539 cell line; type: functional
OVCAR-3 = test: In vitro antitumor activity against human ovarian OVCAR-3 cell line; type: functional
U-251 = test: In vitro antitumor activity against human CNS U251 cell line; type: functional
UACC-62 = test: In vitro antitumor activity against human melanoma UACC-62 cell line; type: functional
RPMI-8226 = test: In vitro antitumor activity against human leukemia RPMI-8226 cell line; type: functional
HCT-15 = test: In vitro antitumor activity against human Colon HCT-15 cell line; type: functional

`COc1cc2c(cc1OCCCOS(C)(=O)=O)N=C[C@@H]1CCCN1C2=O` was tested, and the GI50 (CCRF-CEM) was 52.8 µM, the GI50 (SR) was 62.9 µM and the GI50 (SNB-75) was 94.7 µM. It also gave a GI50 (OVCAR-4) of 70.3 µM.
`COc1cc2c(cc1OCCOS(C)(=O)=O)N=C[C@@H]1CCCN1C2=O` gave a GI50 (CCRF-CEM) of 14.5 µM, a GI50 (SW-620) of 14.6 µM and a GI50 (MDA-MB-231) of 16.5 µM. It also gave a GI50 (SR) of 11.1 µM, a GI50 (TK-10) of 18.1 µM and a GI50 (UO-31) of 15.2 µM. For the same compound, the GI50 (ACHN) was 16 µM, the GI50 (NCI/ADR-RES) was 13.5 µM and the GI50 (M14) was 18.7 µM. It also gave a GI50 (SK-MEL-5) of 16.9 µM, a GI50 (LOX IMVI) of 15.7 µM and a GI50 (HCT-116) of 18.5 µM. The GI50 (NCI-H23) was 12.2 µM, the GI50 (Malme-3M) was 13.6 µM and the GI50 (NCI-H226) was 15.4 µM. It also gave a GI50 (UACC-257) of 18.2 µM, a GI50 (A498) of 17.1 µM and a GI50 (NCI-H522) of 10.9 µM. For the same compound, the GI50 (786-0) was 17 µM, the GI50 (CAKI-1) was 17.7 µM and the GI50 (SF-539) was 18.6 µM. The GI50 (OVCAR-3) was 16.3 µM, the GI50 (U-251) was 17.1 µM and the GI50 (UACC-62) was 19.4 µM. For the same compound, the GI50 (RPMI-8226) was 12.2 µM and the GI50 (HCT-15) was 16.5 µM.
